The results in this text go back to patent US20230174484A1, “ANTAGONISTS OF GPR39 PROTEIN” (Oregon Health & Science University, priority 2020, published 2023).

pKi: −log10 of the molar value. Structures can show the parent of a compound that is named as a salt. Bounds are passed on as bounds.

This test addresses T1, human GPR39 receptor (Homo sapiens, UniProt O43194).
T1 construct: PC3 Cells, Expressing the Endogenous Human GPR39 Receptor; endogenous in cells; host or cells: PC3 (human prostate adenocarcinoma) cells
T1 sequence (O43194 1-453): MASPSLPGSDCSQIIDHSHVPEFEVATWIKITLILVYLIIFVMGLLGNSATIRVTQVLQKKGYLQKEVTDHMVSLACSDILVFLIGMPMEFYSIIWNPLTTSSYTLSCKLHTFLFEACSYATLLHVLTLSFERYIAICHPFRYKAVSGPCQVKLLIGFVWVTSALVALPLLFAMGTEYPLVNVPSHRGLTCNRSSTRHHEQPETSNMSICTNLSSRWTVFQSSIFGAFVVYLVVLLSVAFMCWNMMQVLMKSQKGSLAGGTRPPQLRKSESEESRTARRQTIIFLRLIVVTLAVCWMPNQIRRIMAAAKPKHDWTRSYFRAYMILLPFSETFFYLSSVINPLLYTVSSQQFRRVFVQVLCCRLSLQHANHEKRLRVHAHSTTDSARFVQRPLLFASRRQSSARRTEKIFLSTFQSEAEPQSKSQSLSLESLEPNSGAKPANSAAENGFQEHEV
Nature of the test: Measurement of intracellular calcium response in PC3 cells (FLIPR), antagonism of the C3 agonist response. Type of test: cell-based. Particulars: functional pKi (modified Cheng-Prusoff), inhibition of the C3 (TC-G 1008) response at EC90, 30 μM ZnCl2, read-out: fpKi activity. The gist of the method:
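Potency was reported as fpKi, converted by modified Cheng-Prusoff from four-parameter IC50 fits against an EC90 C3 agonist challenge. Calcium-6 FLIPR readings used PC3 cells naturally expressing human GPR39, in pH 7.4 HEPES buffer containing 30 μM final ZnCl2. Score bands: +/± <5.2, + 5.2–5.9, ++ 6.0–6.5, +++ 6.6–7.2, ++++ ≥7.3.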
For `CN1CCN(C(=O)c2ccc(NC(=O)C3CC3)nc2N2CCCC(F)(F)C2)C(c2ccccc2)C1` (racemic) [Example 144, N-[6-(3,3-difluoropiperidin-1-yl)-5-(4-methyl-2-phenylpiperazine-1-carbonyl)pyridin-2-yl]cyclopropanecarboxamide], the pKi is 6.60 to 7.20.
For the compound `CCCN1CCN(C(=O)c2ccc(NC(=O)C3CC3)cc2N2CC[C@@H](C(C)C)C2)CC1` [Example 2, (S)-N-(3-(3-isopropylpyrrolidin-1-yl)-4-(4-propylpiperazine-1-carbonyl)phenyl)cyclopropanecarboxamide], the pKi is no less than 7.30.
Regarding `CN(C)C(=O)N1CCN(C(=O)c2ccc(NC(=O)C3CC3)cc2N2CCCC2)C(c2ccccc2)C1` (stereo not drawn) [Example 216, 4-[4-(cyclopropanecarbonylamino)-2-pyrrolidin-1-ylbenzoyl]-N,N-dimethyl-3-phenylpiperazine-1-carboxamide], the pKi is 6.60 to 7.20.
The figure for `CCCN1CCN(C(=O)c2ccc(NC(=O)C3CC3)cc2N2CCC3(CCC3)C2)CC1` [Example 1, N-(4-(4-propylpiperazine-1-carbonyl)-3-(6-azaspiro[3.4]octan-6-yl)phenyl)cyclopropanecarboxamide] is no less than 7.30; for `CN1CCN(C(=O)c2ccc(NC(=O)C3CC3)cc2N2CCC3(COC3)C2)C(c2ccccc2)C1` (stereo not drawn) [Example 203, N-[4-(4-methyl-2-phenylpiperazine-1-carbonyl)-3-(2-oxa-7-azaspiro[3.4]octan-7-yl)phenyl]cyclopropanecarboxamide] it is 6.00 to 6.50; for `CN1CCN(C(=O)c2ccc(NC(=O)C3CC3)cc2N2CCCCC2)C(c2ccccc2)C1` (racemic) [Example 201c, N-[4-(4-methyl-2-phenylpiperazine-1-carbonyl)-3-piperidin-1-ylphenyl]cyclopropanecarboxamide] it is 6.60 to 7.20.
With `CN1CCN(C(=O)c2ccc(NC(=O)C3CC3)cc2N2CCCC2)C(c2ccccc2)C1` (racemic) [Example 62c, N-[4-(4-methyl-2-phenylpiperazine-1-carbonyl)-3-pyrrolidin-1-ylphenyl]Cyclopropanecarboxamide], the pKi is 6.60 to 7.20.
With `C[C@@H]1C[C@H](C)CN(c2cc(NC(=O)C3CC3)ccc2C(=O)N2CCS(=O)(=O)CC2)C1` [Example 67, Syn N-[3-[-3,5-dimethylpiperidin-1-yl]-4-(1,1-dioxo-1,4-thiazinane-4-carbonyl)phenyl]Cyclopropanecarboxamide], the pKi is no less than 7.30.
For the compound `O=C(Nc1ccc(C(=O)N2CCS(=O)(=O)CC2)c(N2CCCC(F)(F)C2)c1)C1CC1` [Example 191, N-[3-(3,3-difluoropiperidin-1-yl)-4-(1,1-dioxo-1,4-thiazinane-4-carbonyl)phenyl]cyclopropanecarboxamide], the pKi is 5.20 to 5.90.
Consider `CCCN1CCN(C(=O)c2ccc(NC(N)=O)cc2N2CCCCCC2)CC1` [Example 96, [3-(azepan-1-yl)-4-(4-propylpiperazine-1-carbonyl)phenyl]urea], for which the pKi is 5.20 to 5.90.
Consider `CN1CCN(C(=O)c2ccc(NC(=O)C3CC3)cc2N2CCC3(COC3)C2)C(c2cccc(Cl)c2)C1` (stereo not drawn) [Example 212, N-[4-[2-(3-chlorophenyl)-4-methylpiperazine-1-carbonyl]-3-(2-oxa-7-azaspiro[3.4]octan-7-yl)phenyl]cyclopropanecarboxamide], for which the pKi was 6.60 to 7.20.
As for `CN1CCN(C(=O)c2ccc(NC(=O)C3CC3)cc2N2CCCC2)C(c2ccccc2F)C1` (single isomer, unassigned) [Example 84a, N-[4-[2-(2-fluorophenyl)-4-methylpiperazine-1-carbonyl]-3-pyrrolidin-1-ylphenyl]cyclopropanecarboxamide], the pKi was 6.60 to 7.20.
On to `CN1CCN(C(=O)c2ccc(NC(=O)C3CC3)cc2N2CCC3(CCC3)C2)C(c2ccccc2)C1` (single isomer, unassigned) [Example 66a, N-[3-(6-azaspiro[3.4]octan-6-yl)-4-(4-methyl-2-phenylpiperazine-1-carbonyl)phenyl]cyclopropanecarboxamide], for which the pKi was no less than 7.30.
For `Cc1nnc(-c2ccc(C(=O)N3CCC(C(F)(F)F)CC3)c(N3CCCC3)c2)[nH]1` [Example 153, [4-(5-methyl-4H-1,2,4-triazol-3-yl)-2-pyrrolidin-1-ylphenyl]-[4-(trifluoromethyl)piperidin-1-yl]methanone], the pKi was 6.60 to 7.20.
Take `Cc1nnc(-c2ccc(C(=O)N3CCC(F)(F)CC3)c(-n3ccc(C(F)(F)F)n3)c2)[nH]1` [Example 208]: the pKi was no less than 7.30.
With `CN1CCN(C(=O)c2ccc(NC(=O)C3CC3)cc2N2CCCC2)C(c2ccccc2Cl)C1` (single isomer, unassigned) [Example 170b, (2R or 2S) N-[4-[2-(2-chlorophenyl)-4-methylpiperazine-1-carbonyl]-3-pyrrolidin-1-ylphenyl]cyclopropanecarboxamide], the pKi was 6.00 to 6.50.
In the case of `CN1CCN(C(=O)c2ccc(NC(=O)C3CC3)cc2N2CCCC2)C(c2ccccc2)C1` (single isomer, unassigned) [Example 62d, 2R or 2S N-[4-(4-methyl-2-phenylpiperazine-1-carbonyl)-3-pyrrolidin-1-ylphenyl]cyclopropanecarboxamide hydrochloride], the pKi is 6.60 to 7.20.
Consider `CCCN1CCn2c(cnc2-c2ccc(NC(=O)C3CC3)cc2N2CCCCCC2)C1` [Example 105, N-[3-(azepan-1-yl)-4-(7-propyl-6,8-dihydro-5H-imidazo[1,5-a]pyrazin-3-yl)phenyl]cyclopropanecarboxamide], for which the pKi was 6.60 to 7.20.
With `Cc1nnc(-c2ccc(C(=O)N3CCN(C)CC3c3ccccc3)c(N3CCCC3)c2)[nH]1` (racemic) [Example 150c, (4-methyl-2-phenylpiperazin-1-yl)-[4-(5-methyl-4H-1,2,4-triazol-3-yl)-2-pyrrolidin-1-ylphenyl]methanone], the pKi is 6.60 to 7.20.
The figure for `O=C(Nc1ccc(C(=O)N2CCNCC2c2ccccc2F)c(N2CCCC2)c1)C1CC1` (racemic) [Example 157] is 5.20 to 5.90; for `O=C(Nc1ccc(C(=O)N2CCN(Cc3cccc(F)c3)CC2)c(N2CCCCCC2)c1)C1CC1` [Example 26, N-(3-(azepan-1-yl)-4-(4-(3-fluorobenzyl)piperazine-1-carbonyl)phenyl) Cyclopropanecarboxamide] it is 6.60 to 7.20; for `CN1CCN(C(=O)c2ccc(NC(=O)C3CC3)cc2N2CCCC2)C(c2cccs2)C1` (single isomer, unassigned) [Example 86b, N-[4-(4-methyl-2-thiophen-2-ylpiperazine-1-carbonyl)-3-pyrrolidin-1-ylphenyl]cyclopropanecarboxamide] it is no less than 7.30.
On to `O=C(Nc1ccc(C(=O)N2CCS(=O)(=O)CC2)c(N2CCCC(C(F)(F)F)C2)c1)C1CC1` (racemic) [Example 185c, N-[4-(1,1-dioxo-1,4-thiazinane-4-carbonyl)-3-[3-(trifluoromethyl)piperidin-1-yl]phenyl]cyclopropanecarboxamide], for which the pKi was 6.60 to 7.20.
As for `O=C(Nc1ccc(C(=O)N2CCN(Cc3ccon3)CC2)c(N2CCCCCC2)c1)C1CC1` [Example 22, N-(3-(azepan-1-yl)-4-(4-(isoxazol-3-ylmethyl)piperazine-1-carbonyl)phenyl) cyclopropanecarboxamide], the figure is 6.60 to 7.20; as for `O=C(Nc1ccc(C(=O)N2CCS(=O)(=O)CC2)c(N2CCCC(C(F)(F)F)C2)c1)C1CC1` (single isomer, unassigned) [Example 185a, N-[4-(1,1-dioxo-1,4-thiazinane-4-carbonyl)-3-[3R or 3S-(trifluoromethyl)piperidin-1-yl]phenyl]cyclopropanecarboxamide], 6.60 to 7.20.
Take `COc1ccccc1CN1CCN(C(=O)c2ccc(NC(=O)C3CC3)cc2N2CCCCCC2)CC1` [Example 27, N-(3-(azepan-1-yl)-4-(4-(2-methoxybenzyl)piperazine-1-carbonyl)phenyl) cyclopropanecarboxamide]: the pKi was 6.00 to 6.50.
On to `CS(=O)(=O)N1CCN(C(=O)c2ccc(NC(=O)C3CC3)cc2N2CCCC2)C(c2ccccc2)C1` (stereo not drawn) [Example 215, N-[4-(4-methylsulfonyl-2-phenylpiperazine-1-carbonyl)-3-pyrrolidin-1-ylphenyl]cyclopropanecarboxamide], for which the pKi was 6.60 to 7.20.
As to `O=C(Nc1ccc(C(=O)N2CCOCC2)c(N2CCCCCC2)c1)C1CC1` [Example 45, N-(3-(azepan-1-yl)-4-(morpholine-4-carbonyl)phenyl)cyclopropanecarboxamide], the pKi was 6.00 to 6.50.
On to `CC1CCN(c2cc(NC(=O)C3CC3)ccc2C(=O)N2CCN(C)CC2c2ccccc2)C1` (single isomer, unassigned) [Example 64b, (2S, 3R) or (2R, 3S) or (2R, 3R) or (2S, 3S) N-[4-(4-methyl-2-phenylpiperazine-1-carbonyl)-3-(3-methylpyrrolidin-1-yl)phenyl] cyclopropanecarboxamide], for which the pKi was 5.20 to 5.90.
As for `O=C(NCc1ccccn1)c1ccc(NC(=O)C2CC2)cc1N1CCCCCC1` [Example 42, 2-(azepan-1-yl)-4-cyclopropaneamido-N-[(pyridin-2-yl)methyl]benzamide], the pKi is 6.00 to 6.50.
